Assay results: ChEMBL document CHEMBL4043087 (J Med Chem, 2017)

What was measured:
[1] = Toxicity in mouse; type: organism-based; settings: in vivo
Sus scrofa [2] = experiment: Anesthetic activity in mini pig assessed as onset time for loss of righting reflex at 5 mg/kg, administered as bolus dose; type: functional
Canis familiaris [3] = experiment: Anesthetic activity in Beagle dog assessed as anesthetic duration time at 25 mg/kg, administered as bolus dose; type: functional, Canis lupus familiaris
Rattus norvegicus = experiment: Anesthetic activity in Sprague-Dawley rat assessed as loss of righting reflex; type: functional
[4] = Therapeutic index, ratio of LD50 for toxicity in mouse to ED50 for anesthetic effect in mouse
Mus musculus = experiment: Anesthetic activity in mouse model assessed as loss of righting reflex; type: functional
Sus scrofa [5] = experiment: Anesthetic activity in mini pig assessed as recovery time at 5 mg/kg, administered as bolus dose; type: functional
Canis familiaris [6] = experiment: Anesthetic activity in Beagle dog assessed as recovery time at 25 mg/kg, administered as bolus dose; type: functional, Canis lupus familiaris
Canis familiaris [7] = experiment: Anesthetic activity in Beagle dog assessed as onset time for loss of righting reflex at 25 mg/kg, administered as bolus dose; type: functional, Canis lupus familiaris
Sus scrofa [8] = experiment: Anesthetic activity in mini pig assessed as anesthetic duration time at 5 mg/kg, administered as bolus dose; type: functional
[9] = Therapeutic index, ratio of LD50 for toxicity in Sprague-Dawley rat to ED50 for anesthetic effect in Sprague-Dawley rat; settings: read-out: Ratio LD50/ED50
Sus scrofa [10] = experiment: Anesthetic activity in mini pig assessed as onset time for loss of righting reflex at 22.5 mg/kg, administered as bolus dose; type: functional
Canis familiaris [11] = experiment: Anesthetic activity in Beagle dog assessed as recovery time at 75 mg/kg, administered as bolus dose; type: functional, Canis lupus familiaris
[12] = Toxicity in Sprague-Dawley rat; settings: in vivo
Sus scrofa [13] = experiment: Anesthetic activity in mini pig assessed as recovery time at 22.5 mg/kg, administered as bolus dose; type: functional
Canis familiaris [14] = experiment: Anesthetic activity in Beagle dog assessed as anesthetic duration time at 75 mg/kg, administered as bolus dose; type: functional, Canis lupus familiaris
Canis familiaris [15] = experiment: Anesthetic activity in Beagle dog assessed as onset time for loss of righting reflex at 75 mg/kg, administered as bolus dose; type: functional, Canis lupus familiaris
Sus scrofa [16] = experiment: Anesthetic activity in mini pig assessed as anesthetic duration time at 22.5 mg/kg, administered as bolus dose; type: functional
Canis familiaris [17] = experiment: Anesthetic activity in Beagle dog assessed as onset time for loss of righting reflex at 12.5 mg/kg, administered as bolus dose; type: functional, Canis lupus familiaris
Sus scrofa [18] = experiment: Anesthetic activity in mini pig assessed as onset time for loss of righting reflex at 4 mg/kg, administered as bolus dose; type: functional
Canis familiaris [19] = experiment: Anesthetic activity in Beagle dog assessed as recovery time at 12.5 mg/kg, administered as bolus dose; type: functional, Canis lupus familiaris
Canis familiaris [20] = experiment: Anesthetic activity in Beagle dog assessed as anesthetic duration time at 12.5 mg/kg, administered as bolus dose; type: functional, Canis lupus familiaris
Sus scrofa [21] = experiment: Anesthetic activity in mini pig assessed as anesthetic duration time at 4 mg/kg, administered as bolus dose; type: functional
Sus scrofa [22] = experiment: Anesthetic activity in mini pig assessed as recovery time at 4 mg/kg, administered as bolus dose; type: functional

CC(C)c1cccc([C@H](C)C2CC2)c1OCOP(=O)([O-])[O-].[Na+].[Na+]
LD50 [1]: 86.5 mg/kg
Time (Sus scrofa [2]): 1.6 min
Time (Canis familiaris [3]): 72.2 min
ED50 (Rattus norvegicus): 12.9 mg/kg
Ratio LD50/ED50 [4]: 4.2
ED50 (Mus musculus): 20.4 mg/kg
Time (Sus scrofa [5]): 4.8 min
Time (Canis familiaris [6]): 11.2 min
Time (Canis familiaris [7]): 0.7 min
Time (Sus scrofa [8]): 68.2 min
selectivity ratio [9]: 4.74

CC(C)c1cccc(C(C)C)c1OCOP(=O)([O-])[O-].[Na+].[Na+] [FOSPROPOFOL DISODIUM]
LD50 [1]: 220 mg/kg
Time (Sus scrofa [10]): 1.6 min
Time (Canis familiaris [11]): 7.3 min
LD50 [12]: 189 mg/kg
ED50 (Rattus norvegicus): 41 mg/kg
Ratio LD50/ED50 [4]: 2.3
ED50 (Mus musculus): 95 mg/kg
Time (Sus scrofa [13]): 6 min
Time (Canis familiaris [14]): 80.4 min
Time (Canis familiaris [15]): 2.1 min
selectivity ratio [9]: 4.61
Time (Sus scrofa [16]): 72.6 min

C[C@@H](c1cccc([C@H](C)C2CC2)c1OCOP(=O)([O-])[O-])C1CC1.[Na+].[Na+]
LD50 [1]: 42.5 mg/kg
Time (Canis familiaris [17]): 0.9 min
LD50 [12]: 40.4 mg/kg
ED50 (Rattus norvegicus): 7.34 mg/kg
Ratio LD50/ED50 [4]: 3.6
ED50 (Mus musculus): 11.7 mg/kg
Time (Sus scrofa [18]): 3 min
Time (Canis familiaris [19]): 3.3 min
Time (Canis familiaris [20]): 70.2 min
Time (Sus scrofa [21]): 65.8 min
Time (Sus scrofa [22]): 9.6 min
selectivity ratio [9]: 5.51
